# Measured values as given in patent EP3981864A1, “DETERGENT COMPOSITION” (priority 2020, dated 2022).
# Biological target: T1, Nicotiana tabacum αDOX (SEQ ID NO: 6), fatty acid alpha-dioxygenase, 082031, N-terminal His-tag variant SEQ ID NO: 259 (Nicotiana tabacum, UniProt A0A1S3ZX38)
# T1 construct: made in house; host or cells: Escherichia coli BL21 (DE3), pET30a
# T1 sequence (A0A1S3ZX38 1-643): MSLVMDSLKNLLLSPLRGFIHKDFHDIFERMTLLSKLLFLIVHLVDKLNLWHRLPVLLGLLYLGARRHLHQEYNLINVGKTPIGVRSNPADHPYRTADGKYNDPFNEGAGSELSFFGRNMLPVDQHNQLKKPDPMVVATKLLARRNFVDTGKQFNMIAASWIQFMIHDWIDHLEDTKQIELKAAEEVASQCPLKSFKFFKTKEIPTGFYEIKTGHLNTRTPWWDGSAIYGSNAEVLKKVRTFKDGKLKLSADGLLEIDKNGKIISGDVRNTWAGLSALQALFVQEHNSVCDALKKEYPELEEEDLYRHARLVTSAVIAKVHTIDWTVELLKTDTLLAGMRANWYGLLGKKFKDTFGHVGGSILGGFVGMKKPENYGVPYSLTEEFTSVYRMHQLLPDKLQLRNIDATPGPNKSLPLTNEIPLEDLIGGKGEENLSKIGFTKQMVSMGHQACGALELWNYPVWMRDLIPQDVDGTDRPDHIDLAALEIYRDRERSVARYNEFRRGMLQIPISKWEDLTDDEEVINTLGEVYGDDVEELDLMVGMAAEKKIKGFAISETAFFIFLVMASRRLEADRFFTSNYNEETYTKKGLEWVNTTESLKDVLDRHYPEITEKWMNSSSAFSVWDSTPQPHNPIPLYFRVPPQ
# Assay: Alpha-dioxygenase activity assay (oxygen consumption, TON)
# Assay type: biochemical
# Conditions: fatty acid 100 µM, enzyme 6 ppm, 50 mM HEPES pH 9.0, 37°C; initial rate of oxygen consumption / enzyme concentration
# Description: Nicotiana tabacum αDOX (SEQ ID NO: 6) is a fatty acid alpha-dioxygenase that converts fatty acids into the corresponding 2-hydroperoxy fatty acids and is included as an example of the present invention. A codon optimized gene (SEQ ID NO: 258) encoding for an alpha-dioxygenase variant (SEQ ID NO: 259), including an N-terminal amino acid sequence containing a His-tag was designed and synthesized by Genscript. After gene synthesis, the protein was expressed and purified. In brief, the complete synthetic gene sequence was subcloned into a pET30a vector using the NdeI/HindIII cloning sites. For heterologous expression, Escherichia coli BL21 (DE3) cells were transformed with the recombinant plasmid and a single colony was inoculated into LB medium containing kanamycin (50 mg/L). A pre-starter culture was then inoculated into flasks containing Magic Media (Thermo Fisher, Catalog # K6803) supplemented with kanamycin (50 mg/L) and incubated at 16 °C for 72 h. At an OD600nm = 0.5 - 1.0, 5-aminolevulinic acid (final concentration 0.5 mM) was added. Cells were harvested by centrifugation at 5000 rpm and 4°C and the pellet was lysed using a bacterial cell lysis buffer (B-PER - Themo Fisher, Waltham, MA). After centrifugation, the supernatant was collected, and the protein was purified by one-step purification using HisPur™ Ni-NTA Spin Columns (Thermo Scientific, Catalog # 88226) and standard protocols known in the art. The protein was concentrated using a 10 kDa MW cutoff Amicon Ultra centrifugal filter unit (Millipore Sigma, Catalog# UFC901024), followed by desalting using a disposable PD-10 desalting column (GE Healthcare Life Sciences, Catalog# 17085101) and a buffer containing 50 mM Tris-HCl, 500 mM NaCl, and 10% Glycerol at pH 8.0. […]
# Reactions with alpha-dioxygenases were performed as follows. […] The reaction was incubated for up to 10 minutes at 37°C with 200 rpm agitation and the conversion was monitored using an oxygen sensor. The TON (in s-1) were calculated as the ratio between the initial rate of oxygen consumption (in µM/s) and the concentration of enzyme (in µM). […]
compound,measurement,value
CCCCCCCC/C=C\CCCCCCCC(=O)O [Oleic Acid],"Oleic Acid, TON",0.78 s⁻¹
CCCCCCCCCCCCCCCC(=O)O [Palmitic Acid],"Palmitic Acid, TON",3.07 s⁻¹
CCCCCCCCCCCCCCCCCC(=O)O [Stearic Acid],"Stearic Acid, TON",2.66 s⁻¹
